Source: patent US11236129B2, “IL-17A binding peptides and medical uses thereof” (Dompe' Farmaceutici S.P.A., priority 2018, dated 2022)
Residues, ends and D or L forms follow the SMILES beside them.

biological target: IL-17RA/IL17RC dimerization induced by IL-17A (Homo sapiens, UniProt Q16552); assay: IL-17RA/IL17RC dimerization assay in response to IL-17A (PathHunter Cytokine Receptor Assay); assay type: cell-based; conditions: IL-17A at EC80; read-out: IC50 in IL-17RA/IL7RC dimerization assay
Sequence (Q16552 24-155): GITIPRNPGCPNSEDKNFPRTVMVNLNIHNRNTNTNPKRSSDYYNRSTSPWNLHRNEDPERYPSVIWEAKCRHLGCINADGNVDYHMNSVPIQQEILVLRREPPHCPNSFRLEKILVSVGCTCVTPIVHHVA
How it was run: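 PathHunter cells with IL-17RA and IL-17RC tagged for β-galactosidase complementation were preincubated 60 min with peptide (1% vehicle). IL-17A was then added at EC80 for 6–16 h at 37 °C, and chemiluminescence was read. Inhibition is relative to the EC80 and vehicle controls.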

Question: CC(=O)N[C@H](C(=O)N[C@@H](Cc1c[nH]cn1)C(=O)N[C@H](C(=O)N[C@H](C(=O)N[C@H](C(=O)N1CCC[C@H]1C(=O)N[C@@H](CCC(N)=O)C(=O)N[C@@H](CCC(=O)O)C(=O)N[C@@H](CC(C)C)C(=O)N[C@@H](Cc1ccc(O)cc1)C(=O)N[C@@H](CCC(=O)O)C(=O)N[C@@H](Cc1c[nH]c2ccccc12)C(=O)N[C@H](C(=O)N[C@@H](CCC(=O)O)C(=O)N[C@@H](CCC(=O)O)C(N)=O)C(C)C)C(C)C)[C@@H](C)O)C(C)C)C(C)C [SEQ ID NO: 229] (Ac-VHVTVPQELYEWVEE-NH2) was tested. Which IC50 did it give?
Answer: < 10 µM

Question: For CC[C@H](C)[C@H](NC(=O)[C@H](CO)NC(=O)[C@@H](NC(=O)[C@H](Cc1c[nH]cn1)NC(=O)[C@@H](NC(C)=O)C(C)C)C(C)C)C(=O)N1CCC[C@H]1C(=O)N[C@@H](CCC(N)=O)C(=O)N[C@@H](CCC(=O)O)C(=O)N[C@@H](CC(C)C)C(=O)N[C@@H](Cc1c[nH]c2ccccc12)C(=O)N[C@@H](CCC(=O)O)C(=O)N[C@@H](Cc1c[nH]c2ccccc12)C(=O)N[C@H](C(=O)N[C@@H](CCCNC(=N)N)C(=O)N[C@@H](CCCNC(=N)N)C(N)=O)C(C)C [SEQ ID NO: 230] (Ac-VHVSIPQELWEWVRR-NH2), which IC50 is on record?
Answer: < 10 µM

Question: How did the IC50 turn out when CC(=O)N[C@H](C(=O)N[C@@H](Cc1c[nH]cn1)C(=O)N[C@H](C(=O)N[C@@H](CO)C(=O)N[C@H](C(=O)N1CCC[C@H]1C(=O)N[C@@H](CCC(N)=O)C(=O)N[C@@H](CCC(=O)O)C(=O)N[C@@H](CC(C)C)C(=O)N[C@@H](Cc1c[nH]c2ccccc12)C(=O)N[C@@H](CCC(=O)O)C(=O)N[C@@H](Cc1c[nH]c2ccccc12)C(=O)N[C@H](C(=O)N[C@@H](CCCNC(=N)N)C(=O)N[C@@H](CCCNC(=N)N)C(N)=O)C(C)C)C(C)C)C(C)C)C(C)C [SEQ ID NO: 231] (Ac-VHVSVPQELWEWVRR-NH2) was run?
Answer: < 10 µM

Question: CC(=O)N[C@H](C(=O)N[C@@H](Cc1c[nH]cn1)C(=O)N[C@H](C(=O)N[C@@H](CO)C(=O)N[C@H](C(=O)N1CCC[C@H]1C(=O)N[C@@H](CCC(N)=O)C(=O)N[C@@H](CCC(=O)O)C(=O)N[C@@H](CC(C)C)C(=O)N[C@@H](Cc1ccc(O)cc1)C(=O)N[C@@H](CCC(=O)O)C(=O)N[C@@H](Cc1c[nH]c2ccccc12)C(=O)N[C@H](C(=O)N[C@@H](CCCNC(=N)N)C(=O)N[C@@H](CCCNC(=N)N)C(N)=O)C(C)C)C(C)C)C(C)C)C(C)C [SEQ ID NO: 232] (Ac-VHVSVPQELYEWVRR-NH2) was tested. Which IC50 did it give?
Answer: < 10 µM

Question: CC[C@H](C)[C@H](NC(=O)[C@@H](NC(=O)[C@@H](NC(=O)[C@H](CCCNC(=N)N)NC(=O)[C@@H](NC(C)=O)C(C)C)C(C)C)[C@@H](C)O)C(=O)N1CCC[C@H]1C(=O)N[C@@H](CCC(N)=O)C(=O)N[C@@H](CCC(=O)O)C(=O)N[C@@H](CC(C)C)C(=O)N[C@@H](Cc1c[nH]c2ccccc12)C(=O)N[C@@H](CCC(=O)O)C(=O)N[C@@H](Cc1c[nH]c2ccccc12)C(=O)N[C@H](C(=O)N[C@@H](CCCNC(=N)N)C(=O)N[C@@H](CCCNC(=N)N)C(N)=O)C(C)C [SEQ ID NO: 233] (Ac-VRVTIPQELWEWVRR-NH2) was tested. Which IC50 did it give?
Answer: < 10 µM

Question: With CC(=O)N[C@H](C(=O)N[C@@H](CCCNC(=N)N)C(=O)N[C@H](C(=O)N[C@H](C(=O)N[C@H](C(=O)N1CCC[C@H]1C(=O)N[C@@H](CCC(N)=O)C(=O)N[C@@H](CCC(=O)O)C(=O)N[C@@H](CC(C)C)C(=O)N[C@@H](Cc1ccc(O)cc1)C(=O)N[C@@H](CCC(=O)O)C(=O)N[C@@H](Cc1c[nH]c2ccccc12)C(=O)N[C@H](C(=O)N[C@@H](CCCNC(=N)N)C(=O)N[C@@H](CCCNC(=N)N)C(N)=O)C(C)C)C(C)C)[C@@H](C)O)C(C)C)C(C)C [SEQ ID NO: 234] (Ac-VRVTVPQELYEWVRR-NH2) as the molecule, how does the IC50 read?
Answer: < 10 µM

Question: CC(=O)N[C@H](C(=O)N[C@@H](CCCNC(=N)N)C(=O)N[C@H](C(=O)N[C@H](C(=O)N[C@H](C(=O)N1CCC[C@H]1C(=O)N[C@@H](CCC(N)=O)C(=O)N[C@@H](CCC(=O)O)C(=O)N[C@@H](CC(C)C)C(=O)N[C@@H](Cc1c[nH]c2ccccc12)C(=O)N[C@@H](CCC(=O)O)C(=O)N[C@@H](Cc1c[nH]c2ccccc12)C(=O)N[C@H](C(=O)N[C@@H](CCCNC(=N)N)C(=O)N[C@@H](CCCNC(=N)N)C(N)=O)C(C)C)C(C)C)[C@@H](C)O)C(C)C)C(C)C [SEQ ID NO: 235] (Ac-VRVTVPQELWEWVRR-NH2) was tested. Which IC50 did it give?
Answer: < 10 µM

Question: With CC[C@H](C)[C@H](NC(=O)[C@H](CCC(=O)O)NC(=O)[C@H](CCC(N)=O)NC(=O)[C@@H]1CCCN1C(=O)[C@@H](NC(=O)[C@@H](NC(=O)[C@@H](NC(=O)[C@H](Cc1c[nH]cn1)NC(=O)[C@@H](NC(C)=O)C(C)C)C(C)C)[C@@H](C)O)C(C)C)C(=O)N[C@@H](Cc1ccc(O)cc1)C(=O)N[C@@H](CCC(=O)O)C(=O)N[C@@H](Cc1c[nH]c2ccccc12)C(=O)N[C@H](C(=O)N[C@@H](CCCNC(=N)N)C(=O)N[C@@H](CCCNC(=N)N)C(N)=O)C(C)C [SEQ ID NO: 236] (Ac-VHVTVPQEIYEWVRR-NH2) as the molecule, how does the IC50 read?
Answer: < 10 µM

Question: With CC[C@H](C)[C@H](NC(=O)[C@H](CCC(=O)O)NC(=O)[C@H](CCC(N)=O)NC(=O)[C@@H]1CCCN1C(=O)[C@@H](NC(=O)[C@@H](NC(=O)[C@@H](NC(=O)[C@H](Cc1c[nH]cn1)NC(=O)[C@@H](NC(C)=O)C(C)C)C(C)C)[C@@H](C)O)[C@@H](C)CC)C(=O)N[C@@H](Cc1c[nH]c2ccccc12)C(=O)N[C@@H](CCC(=O)O)C(=O)N[C@@H](Cc1c[nH]c2ccccc12)C(=O)N[C@H](C(=O)N[C@@H](CCCNC(=N)N)C(=O)N[C@@H](CCCNC(=N)N)C(N)=O)C(C)C [SEQ ID NO: 237] (Ac-VHVTIPQEIWEWVRR-NH2) as the molecule, how does the IC50 read?
Answer: < 10 µM

Question: Which IC50 does the source give for CC(=O)N[C@H](C(=O)N[C@@H](Cc1c[nH]cn1)C(=O)N[C@@H](Cc1ccccc1)C(=O)N[C@H](C(=O)N[C@H](C(=O)N1CCC[C@H]1C(=O)N[C@@H](CCC(N)=O)C(=O)N[C@@H](CCC(=O)O)C(=O)N[C@@H](CC(C)C)C(=O)N[C@@H](Cc1ccc(O)cc1)C(=O)N[C@@H](CCC(=O)O)C(=O)N[C@@H](Cc1c[nH]c2ccccc12)C(=O)N[C@H](C(=O)N[C@@H](CCCNC(=N)N)C(=O)N[C@@H](CCCNC(=N)N)C(N)=O)C(C)C)C(C)C)[C@@H](C)O)C(C)C [SEQ ID NO: 238] (Ac-VHFTVPQELYEWVRR-NH2) here?
Answer: < 10 µM

Question: With CC[C@H](C)[C@H](NC(=O)[C@H](Cc1c[nH]c2ccccc12)NC(=O)[C@H](CC(=O)O)NC(=O)[C@H](Cc1c[nH]c2ccccc12)NC(=O)[C@H](CC(C)C)NC(=O)[C@H](CC(=O)O)NC(=O)[C@H](C)NC(=O)[C@@H]1CCCN1C(=O)[C@@H](NC(=O)[C@H](CO)NC(=O)[C@@H](NC(=O)[C@H](CCCCN)NC(=O)[C@@H](NC(C)=O)C(C)C)[C@@H](C)CC)C(C)C)C(=O)N[C@@H](CC(N)=O)C(=O)N[C@@H](CCCCN)C(N)=O [SEQ ID NO: 239] (Ac-VKISVPADLWDWINK-NH2) as the molecule, how does the IC50 read?
Answer: < 10 µM

Question: With CC[C@H](C)[C@H](NC(=O)[C@H](Cc1c[nH]c2ccccc12)NC(=O)[C@H](CC(=O)O)NC(=O)[C@H](Cc1c[nH]c2ccccc12)NC(=O)[C@H](CC(C)C)NC(=O)[C@H](CC(=O)O)NC(=O)[C@H](C)NC(=O)[C@@H]1CCCN1C(=O)[C@@H](NC(=O)[C@H](CO)NC(=O)[C@@H](NC(=O)[C@H](CCCNC(=N)N)NC(=O)[C@H](CC(C)C)NC(C)=O)[C@@H](C)CC)C(C)C)C(=O)N[C@@H](CC(N)=O)C(=O)N[C@@H](CCCCN)C(N)=O [SEQ ID NO: 240] (Ac-LRISVPADLWDWINK-NH2) as the molecule, how does the IC50 read?
Answer: < 10 µM

Question: For CC[C@H](C)[C@H](NC(=O)[C@H](Cc1c[nH]c2ccccc12)NC(=O)[C@H](CC(=O)O)NC(=O)[C@H](Cc1c[nH]c2ccccc12)NC(=O)[C@H](CC(C)C)NC(=O)[C@H](CC(=O)O)NC(=O)[C@H](C)NC(=O)[C@@H]1CCCN1C(=O)[C@@H](NC(=O)[C@H](Cc1ccc(O)cc1)NC(=O)[C@@H](NC(=O)[C@H](CCCNC(=N)N)NC(=O)[C@H](CC(C)C)NC(C)=O)[C@@H](C)CC)C(C)C)C(=O)N[C@@H](CC(N)=O)C(=O)N[C@@H](CCCCN)C(N)=O [SEQ ID NO: 241] (Ac-LRIYVPADLWDWINK-NH2), which IC50 is on record?
Answer: < 10 µM

Question: Which IC50 does the source give for CC[C@H](C)[C@H](NC(=O)[C@H](Cc1c[nH]c2ccccc12)NC(=O)[C@H](CC(=O)O)NC(=O)[C@H](Cc1c[nH]c2ccccc12)NC(=O)[C@H](CC(C)C)NC(=O)[C@H](CC(=O)O)NC(=O)[C@H](C)NC(=O)[C@@H]1CCCN1C(=O)[C@@H](NC(=O)[C@H](Cc1ccc(O)cc1)NC(=O)CNC(=O)[C@H](CCCNC(=N)N)NC(=O)[C@@H](NC(C)=O)C(C)C)C(C)C)C(=O)N[C@@H](CC(N)=O)C(=O)N[C@@H](CCCCN)C(N)=O [SEQ ID NO: 242] (Ac-VRGYVPADLWDWINK-NH2) here?
Answer: < 10 µM

Question: With CC[C@H](C)[C@H](NC(=O)[C@H](Cc1c[nH]c2ccccc12)NC(=O)[C@H](CC(=O)O)NC(=O)[C@H](Cc1c[nH]c2ccccc12)NC(=O)[C@H](CC(C)C)NC(=O)[C@H](CC(=O)O)NC(=O)[C@H](C)NC(=O)[C@@H]1CCCN1C(=O)[C@@H](NC(=O)[C@H](Cc1ccc(O)cc1)NC(=O)[C@H](C)NC(=O)[C@H](CCCNC(=N)N)NC(=O)[C@@H](NC(C)=O)C(C)C)C(C)C)C(=O)N[C@@H](CC(N)=O)C(=O)N[C@@H](CCCCN)C(N)=O [SEQ ID NO: 243] (Ac-VRAYVPADLWDWINK-NH2) as the molecule, how does the IC50 read?
Answer: < 10 µM

Question: Which IC50 does the source give for CC[C@H](C)[C@H](NC(=O)[C@H](Cc1c[nH]c2ccccc12)NC(=O)[C@H](CC(=O)O)NC(=O)[C@H](Cc1c[nH]c2ccccc12)NC(=O)[C@H](CC(C)C)NC(=O)[C@H](CC(=O)O)NC(=O)[C@H](C)NC(=O)[C@@H]1CCCN1C(=O)[C@@H](NC(=O)[C@H](Cc1ccc(O)cc1)NC(=O)[C@H](CC(C)C)NC(=O)[C@H](CCCNC(=N)N)NC(=O)[C@@H](NC(C)=O)C(C)C)C(C)C)C(=O)N[C@@H](CC(N)=O)C(=O)N[C@@H](CCCCN)C(N)=O [SEQ ID NO: 244] (Ac-VRLYVPADLWDWINK-NH2) here?
Answer: < 10 µM

Question: Which IC50 does the source give for CC[C@H](C)[C@H](NC(=O)[C@H](Cc1c[nH]c2ccccc12)NC(=O)[C@H](CC(=O)O)NC(=O)[C@H](Cc1c[nH]c2ccccc12)NC(=O)[C@H](CC(C)C)NC(=O)[C@H](CC(=O)O)NC(=O)[C@H](C)NC(=O)[C@@H]1CCCN1C(=O)[C@H](CC(C)C)NC(=O)[C@H](Cc1ccc(O)cc1)NC(=O)[C@@H](NC(=O)[C@H](CCCNC(=N)N)NC(=O)[C@@H](NC(C)=O)C(C)C)[C@@H](C)CC)C(=O)N[C@@H](CC(N)=O)C(=O)N[C@@H](CCCCN)C(N)=O [SEQ ID NO: 245] (Ac-VRIYLPADLWDWINK-NH2) here?
Answer: < 10 µM
